pIC50: −log10 of the molar value.
Test system: K12877-001-R-J1-PDC complex spheroid viability
Experiment: Anticancer human tumor K12877-001-R-J1-PDC patient-derived lung adenocarcinoma cell line growth inhibition [RAS]
Conditions: for viability, T/C: stronger effect = lower value
In short: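 Agents were tested in combination matrices in half-log decrements from a top concentration at or near clinical Cmax (10 microM if undetermined). Targets were multi-cell spheroids of tumour lines plus HUVEC and MSC stromal cells.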

[1] = curve of first compound, second compound 0.0316 µM
[2] = curve of first compound, second compound 0.1 µM
[3] = curve of first compound, second compound 0.316 µM
[4] = curve of first compound, second compound 1 µM
[5] = second compound 0.0316 µM, first compound 0.0316 µM
[6] = second compound 0.0316 µM, first compound 0.1 µM
[7] = second compound 0.0316 µM, first compound 0.316 µM
[8] = second compound 0.0316 µM, first compound 1 µM
[9] = second compound 0.0316 µM, first compound 3.16 µM
[10] = second compound 0.0316 µM, first compound 10 µM
[11] = second compound 0.1 µM, first compound 0.0316 µM
[12] = second compound 0.1 µM, first compound 0.1 µM
[13] = second compound 0.1 µM, first compound 0.316 µM
[14] = second compound 0.1 µM, first compound 1 µM
[15] = second compound 0.1 µM, first compound 3.16 µM
[16] = second compound 0.1 µM, first compound 10 µM
[17] = second compound 0.316 µM, first compound 0.0316 µM
[18] = second compound 0.316 µM, first compound 0.1 µM
[19] = second compound 0.316 µM, first compound 0.316 µM
[20] = second compound 0.316 µM, first compound 1 µM
[21] = second compound 0.316 µM, first compound 3.16 µM
[22] = second compound 0.316 µM, first compound 10 µM
[23] = second compound 1 µM, first compound 0.0316 µM
[24] = second compound 1 µM, first compound 0.1 µM
[25] = second compound 1 µM, first compound 0.316 µM
[26] = second compound 1 µM, first compound 1 µM
[27] = second compound 1 µM, first compound 3.16 µM
[28] = second compound 1 µM, first compound 10 µM
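Also: spheroids exposed to agents for one week before readout.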
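For viability, T/C in this document: tumour cells co-cultured with HUVEC and mesenchymal stem cells in spheroids.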

Compound `CCN1CCN(Cc2ccc(Nc3ncc(F)c(-c4cc(F)c5nc(C)n(C(C)C)c5c4)n3)nc2)CC1` + CCn1c(-c2cc(N3CCN(C)CC3)cnc2C(C)OC)c2c3cc(ccc31)-c1csc(n1)CC(NC(=O)C1CC1C)C(=O)N1CCCC(N1)C(=O)OCC(C)(C)C2 has a pIC50 (curve of first compound, second compound 0.000949 µM) of less than 6.00, a pIC50 (curve of first compound, second compound 0.003 µM) of 6.10 and a pIC50 (curve of first compound, second compound 0.00949 µM) of 6.24. For the same compound, the pIC50 (curve of first compound, second compound 0.03 µM) was 6.33, the pIC50 (curve of first compound, second compound 0.0949 µM) was 6.29 and the pIC50 (curve of first compound, second compound 0.3 µM) was 6.42. The viability, T/C (second compound 0.000949 µM, first compound 0.00316 µM) was 79.9%, the viability, T/C (second compound 0.000949 µM, first compound 0.01 µM) was 84.1% and the viability, T/C (second compound 0.000949 µM, first compound 0.0316 µM) was 85%. It also gave a viability, T/C (second compound 0.000949 µM, first compound 0.1 µM) of 92.5%, a viability, T/C (second compound 0.000949 µM, first compound 0.316 µM) of 86.8% and a viability, T/C (second compound 0.000949 µM, first compound 1 µM) of 73.2%. For the same compound, the viability, T/C (second compound 0.003 µM, first compound 0.00316 µM) was 73.7%, the viability, T/C (second compound 0.003 µM, first compound 0.01 µM) was 72.1% and the viability, T/C (second compound 0.003 µM, first compound 0.0316 µM) was 72.7%. It also gave a viability, T/C (second compound 0.003 µM, first compound 0.1 µM) of 69.3%, a viability, T/C (second compound 0.003 µM, first compound 0.316 µM) of 70.2% and a viability, T/C (second compound 0.003 µM, first compound 1 µM) of 45.3%. The viability, T/C (second compound 0.00949 µM, first compound 0.00316 µM) was 61.7%, the viability, T/C (second compound 0.00949 µM, first compound 0.01 µM) was 61.3% and the viability, T/C (second compound 0.00949 µM, first compound 0.0316 µM) was 68.9%. For the same compound, the viability, T/C (second compound 0.00949 µM, first compound 0.1 µM) was 70.8%, the viability, T/C (second compound 0.00949 µM, first compound 0.316 µM) was 72% and the viability, T/C (second compound 0.00949 µM, first compound 1 µM) was 34.6%. The viability, T/C (second compound 0.03 µM, first compound 0.00316 µM) was 81.7%, the viability, T/C (second compound 0.03 µM, first compound 0.01 µM) was 86.8% and the viability, T/C (second compound 0.03 µM, first compound 0.0316 µM) was 74.3%. It also gave a viability, T/C (second compound 0.03 µM, first compound 0.1 µM) of 89.8%, a viability, T/C (second compound 0.03 µM, first compound 0.316 µM) of 61.5% and a viability, T/C (second compound 0.03 µM, first compound 1 µM) of 28.1%. The viability, T/C (second compound 0.0949 µM, first compound 0.00316 µM) was 106%, the viability, T/C (second compound 0.0949 µM, first compound 0.01 µM) was 97.9% and the viability, T/C (second compound 0.0949 µM, first compound 0.0316 µM) was 99.6%. For the same compound, the viability, T/C (second compound 0.0949 µM, first compound 0.1 µM) was 86.5%, the viability, T/C (second compound 0.0949 µM, first compound 0.316 µM) was 63% and the viability, T/C (second compound 0.0949 µM, first compound 1 µM) was 32.3%. The viability, T/C (second compound 0.3 µM, first compound 0.00316 µM) was 97%, the viability, T/C (second compound 0.3 µM, first compound 0.01 µM) was 86.2% and the viability, T/C (second compound 0.3 µM, first compound 0.0316 µM) was 86.5%. The viability, T/C (second compound 0.3 µM, first compound 0.1 µM) was 76.2%, the viability, T/C (second compound 0.3 µM, first compound 0.316 µM) was 53.1% and the viability, T/C (second compound 0.3 µM, first compound 1 µM) was 26.1%.
`C=CC(=O)Nc1cc(Nc2nccc(-c3cn(C)c4ccccc34)n2)c(OC)cc1N(C)CCN(C)C` was tested, and the viability, T/C (compound 0.00316 µM) was 108% [middle of 4 runs], the viability, T/C (compound 0.01 µM) was 106% [middle of 4 runs] and the viability, T/C (compound 0.0316 µM) was 106% [middle of 4 runs]. For the same compound, the viability, T/C (compound 0.1 µM) was 101% [middle of 4 runs], the viability, T/C (compound 0.316 µM) was 103% [middle of 4 runs] and the viability, T/C (compound 1 µM) was 90.8% [middle of 4 runs]. It also gave a pIC50 (curve of compound) of less than 6.00.
Compound `CC1(O)CCCC1n1c(=O)c(C(F)F)cc2cnc(NC3CCN(S(C)(=O)=O)CC3)nc21` (stereo not drawn) + C#Cc1c(F)ccc2cc(O)cc(-c3ncc4c(N5CC6CCC(C5)N6)nc(OCC56CCCN5CC(F)C6)nc4c3F)c12 has a pIC50 [1] of 5.48, a pIC50 [2] of 5.51 and a pIC50 [3] of 5.41. It also gave a pIC50 [4] of 5.40, a pIC50 (curve of first compound, second compound 3.16 µM) of 5.38 and a pIC50 (curve of first compound, second compound 10 µM) of 5.46. For the same compound, the viability, T/C [5] was 98.5%, the viability, T/C [6] was 115% and the viability, T/C [7] was 77.2%. The viability, T/C [8] was 72.1%, the viability, T/C [9] was 60.9% and the viability, T/C [10] was 3.3%. The viability, T/C [11] was 112%, the viability, T/C [12] was 115% and the viability, T/C [13] was 87.7%. It also gave a viability, T/C [14] of 66%, a viability, T/C [15] of 62.7% and a viability, T/C [16] of 3.47%. For the same compound, the viability, T/C [17] was 119%, the viability, T/C [18] was 104% and the viability, T/C [19] was 85.3%. The viability, T/C [20] was 81.1%, the viability, T/C [21] was 72.3% and the viability, T/C [22] was 3.03%. It also gave a viability, T/C [23] of 106%, a viability, T/C [24] of 106% and a viability, T/C [25] of 84.7%. It also gave a viability, T/C [26] of 83%, a viability, T/C [27] of 67.2% and a viability, T/C [28] of 3.27%. It also gave a viability, T/C (second compound 3.16 µM, first compound 0.0316 µM) of 120%, a viability, T/C (second compound 3.16 µM, first compound 0.1 µM) of 93.1% and a viability, T/C (second compound 3.16 µM, first compound 0.316 µM) of 93.3%. The viability, T/C (second compound 3.16 µM, first compound 1 µM) was 80%, the viability, T/C (second compound 3.16 µM, first compound 3.16 µM) was 74.1% and the viability, T/C (second compound 3.16 µM, first compound 10 µM) was 3.16%. For the same compound, the viability, T/C (second compound 10 µM, first compound 0.0316 µM) was 92%, the viability, T/C (second compound 10 µM, first compound 0.1 µM) was 87% and the viability, T/C (second compound 10 µM, first compound 0.316 µM) was 71.6%. For the same compound, the viability, T/C (second compound 10 µM, first compound 1 µM) was 76.9%, the viability, T/C (second compound 10 µM, first compound 3.16 µM) was 56.3% and the viability, T/C (second compound 10 µM, first compound 10 µM) was 2.77%.
Work on `CC1(O)CCCC1n1c(=O)c(C(F)F)cc2cnc(NC3CCN(S(C)(=O)=O)CC3)nc21` (stereo not drawn) + C=CC(=O)N1CCN(c2nc(OCC3CCCN3C)nc3c(F)c(-c4nc(N)cc(C)c4C(F)(F)F)c(Cl)cc23)C(C)C1 yielded a pIC50 (curve of first compound, second compound 0.00316 µM) of 5.39, a pIC50 (curve of first compound, second compound 0.01 µM) of 5.92 and a pIC50 [1] of 5.79. The pIC50 [2] was 5.89, the pIC50 [3] was 6.15 and the pIC50 [4] was 6.13. It also gave a viability, T/C (second compound 0.00316 µM, first compound 0.0316 µM) of 105%, a viability, T/C (second compound 0.00316 µM, first compound 0.1 µM) of 79.9% and a viability, T/C (second compound 0.00316 µM, first compound 0.316 µM) of 68.2%. It also gave a viability, T/C (second compound 0.00316 µM, first compound 1 µM) of 64%, a viability, T/C (second compound 0.00316 µM, first compound 3.16 µM) of 71.9% and a viability, T/C (second compound 0.00316 µM, first compound 10 µM) of 2.13%. The viability, T/C (second compound 0.01 µM, first compound 0.0316 µM) was 96.1%, the viability, T/C (second compound 0.01 µM, first compound 0.1 µM) was 75.3% and the viability, T/C (second compound 0.01 µM, first compound 0.316 µM) was 49.5%. The viability, T/C (second compound 0.01 µM, first compound 1 µM) was 68.7%, the viability, T/C (second compound 0.01 µM, first compound 3.16 µM) was 34.4% and the viability, T/C (second compound 0.01 µM, first compound 10 µM) was 2.51%. It also gave a viability, T/C [5] of 88.1%, a viability, T/C [6] of 84.9% and a viability, T/C [7] of 56.4%. The viability, T/C [8] was 63.1%, the viability, T/C [9] was 43.9% and the viability, T/C [10] was 2.83%. For the same compound, the viability, T/C [11] was 94.5%, the viability, T/C [12] was 78.7% and the viability, T/C [13] was 59.2%. For the same compound, the viability, T/C [14] was 53.1%, the viability, T/C [15] was 48.4% and the viability, T/C [16] was 2.13%. For the same compound, the viability, T/C [17] was 102%, the viability, T/C [18] was 71.1% and the viability, T/C [19] was 58.7%. The viability, T/C [20] was 45.3%, the viability, T/C [21] was 41.2% and the viability, T/C [22] was 2.43%. It also gave a viability, T/C [23] of 95%, a viability, T/C [24] of 80.7% and a viability, T/C [25] of 43.7%. For the same compound, the viability, T/C [26] was 60.7%, the viability, T/C [27] was 42.2% and the viability, T/C [28] was 2.22%.
